SMILES strings stand for the structures. Where “and” joins values, the source holds several entries; their conditions need not be identical. Identical values can stand only once. Like-named read-outs stand apart in the source and are kept apart here. Square brackets hold non-standard residues; d marks the D form. Peptide text beside a SMILES is read from it.

Data set [1] can be described thus: in vitro. The settings on record: mouse. From the text: (§1) The breast cancer cells MDA-MB-231 (ATCC: HTB-26) and MCF-7 (ATCC: HTB-22) were used to determine antiproliferative activity under in vitro conditions. The breast epithelial cells (MCF-10A, ATCC: CRL-10317) and mouse embryonic fibroblasts (BALB/c 3T3 clone A31, ATCC: CCL-163) were used as control. Cell cultures were purchased from American Type Cultures Collection (ATCC, Manassas, Virginia, USA). In cell culture, growth medium DMEM-high glucose, 10% (v/v) FBS and antibiotics (Sigma-Aldrich, Schnelldorf, Germany) were used. Cells were incubated at 37 °C, 5% CO2 and 95% humidity. Cells were grown in plastic flasks with a surface of 75 cm^2 (Deltalab S.L., Barcelona, Spain).
A safety test was performed on the method BALB/c 3T3 Neutral Red Uptake cytotoxicity Assay. The data generated from the in vitro cytotoxicity assay can be used to determine the safety level of the investigated substances and can predict the starting doses for in vivo toxicity assays. The cells (BALB/c 3T3, clone A31) were seeded at 1 × 10^4 cells/100 μL/well in 96-well flat-bottomed microplates. The plates were placed in a thermostat at 37 °C, 5% CO2 and 95% humidity for 24 h. Peptides were pre-dissolved in DMSO and then culture medium (DMEM) was added. The cells were treated with the BIM-23052 analogs at concentrations from […]. The treated cell culture was incubated for 24 h in a thermostat under standard conditions. The microplates were then washed twice with PBS, and Neutral Red Desorb (1% acetic acid/50% ethanol/49% water) was added. Absorbance was measured by a microplate reader at a wavelength of 540 nm.
The safety test of BIM-23052 analogues was carried out by Neutral Red Uptake cytotoxicity Assay. Cell cultures were incubated with the tested peptide analogs for 24 h.
Mean values are presented ± SD from three independent experiments, n = 6.

The subject of data set [2] is MCF-10A breast epithelial cells. The conditions noted are these: 72 h.
Excerpt: as §1
(§2) Cell viability was determined by a colorimetric MTT-dye reduction assay. The method is based on an enzyme reaction leading to the reduction of […] (MTT) to formazan crystals. The concentration of formazan, which is directly proportional to cell viability, was determined by a spectrophotometric method. Cells (MCF-7, MDA-MB-231 and MCF-10A) were seeded at a 1 × 10^3 cells/100 µL/well in 96-well microplates. The plates were placed in a thermostat under standard conditions for 24 h. Cells were then treated with the peptide analogs at concentrations ranging from 7.5 to 2000 μm. The cells were then incubated in a thermostat for 72 h. The formazan concentration was measured spectrophotometrically by a microplate reader at a wavelength of 540 nm. The antiproliferative potential of BIM-23052 analogs was presented as IC50 values, calculated using GraphPad Prizm Software (San Diego, CA, USA).
(§3) The antiproliferative activity of BIM-23052 analogs was studied by MTT assay. The normal and tumor cell cultures were incubated with the peptide analogs with a concentration range from 7.5 to 2000 μm for 72 h. The antiproliferative activity was determined (Figure 3 and Table 3).
(§4) Figure 3 Dose–response curves for antiproliferative activity of BIM-23052 analogs determined in MCF-10A (ATCC® CRL-10317^TM), MCF-7 (ATCC® HTB-22^TM) and MDA-MB-231 (ATCC® HTB-26^TM) cell lines. Mean values are presented ± SD from three independent experiments, n = 6.

Data set [3] relates to MCF-7 breast cancer cells. The conditions noted are these: for IC50: 72 h.
Excerpt: as §1, §2, §3, §4

Data set [4] concerns MDA-MB-231 breast cancer cells. The settings on record: for IC50: 72 h.
Excerpt: as §1, §2, §3, §4

The mark [5] stands for this setting: read-out: Mean IC50 ± SD, Antiproliferative Effect, MCF-10A, MTT, 7.5 to 2000 μm, absorbance 540 nm, mean ± SD, three independent experiments, n = 6.
Where [6] appears, read: read-out: Mean IC50 ± SD, Antiproliferative Effect, MCF-7, MTT, 7.5 to 2000 μm, absorbance 540 nm, mean ± SD, three independent experiments, n = 6.
Where [7] appears, read: read-out: Mean IC50 ± SD, Antiproliferative Effect, MDA-MB-231, MTT, 7.5 to 2000 μm, absorbance 540 nm, mean ± SD, three independent experiments, n = 6.
Setting [8] is: SI = IC50 MCF-10A/IC50 MDA-MB-231.
Setting [9] is: BALB/c 3T3 clone A31 mouse embryonic fibroblasts.

With `C[C@@H](O)[C@H](NC(=O)[C@H](Cc1ccccc1)NC(=O)[C@@H](NC(=O)[C@H](CCCCN)NC(=O)[C@@H](Cc1c[nH]c2ccccc12)NC(=O)[C@H](Cc1ccccc1)NC(=O)[C@H](Cc1ccccc1)NC(=O)[C@H](N)Cc1ccccc1)[C@@H](C)O)C(N)=O` [BIM-23052, D-Phe-Phe-Phe-D-Trp-Lys-Thr-Phe-Thr-NH2] (H-[dF]FF[dW]KTFT-NH2), half-maximal inhibition in data set [1] (IC50 at 24 h) was put at 483 ± 32.1 µM. In addition, the figures for the IC50 in data set [2], in data set [3] and in data set [4] were 204 ± 6.32 µM, 120 ± 6.53 µM and 335 ± 15.4 µM, respectively. Further, the “Selectivity index SI, MCF-7” value in data set [3] (2 h) is 1.7. The “Selectivity index SI, MDA-MB-231” value in data set [4] (2 h) worked out at 0.61.

`N.N.[Cl][Pt][Cl]` [Cisplatin, reference compound]: the IC50 was determined as 64.3 ± 2.11 µM in data set [2] (setting [5]), 43.1 ± 3.16 µM in data set [3] (setting [6]) and 6.94 ± 0.47 µM in data set [4] (setting [7]).

Take `C[C@@H](O)[C@H](NC(=O)[C@H](Cc1ccccc1)NC(=O)[C@@H](NC(=O)[C@H](CCCCN)NC(=O)[C@@H](Cc1c[nH]c2ccccc12)NC(=O)[C@H](Cc1ccc(O)cc1)NC(=O)[C@H](Cc1ccc(O)cc1)NC(=O)[C@@H](N)Cc1ccc(O)cc1)[C@@H](C)O)C(N)=O` [D6, L-Tyr^1-Tyr^2-Tyr^3-D-Trp-Lys-Thr-Phe-Thr-NH2] (H-YYY[dW]KTFT-NH2): the IC50 at 24 h in data set [1] was > 1000 µM and 1320 µM. For the same compound, the IC50 in data set [2] (setting [5]) stood at 191 ± 6.8 µM; in data set [3] (setting [6]), 359 ± 16.1 µM; in data set [4] (setting [7]) it was 291 ± 12.7 µM. The “Selectivity index SI, MCF-7” value in data set [3] (SI = IC50 MCF-10A/IC50 MCF-7) turned out to be 0.53. Also, in data set [4] (setting [8]), the “Selectivity index SI, MDA-MB-231” value is listed as 0.66.

In turn, `C[C@@H](O)[C@H](NC(=O)[C@H](Cc1ccc(O)cc1)NC(=O)[C@@H](NC(=O)[C@H](CCCCN)NC(=O)[C@@H](Cc1c[nH]c2ccccc12)NC(=O)[C@H](Cc1ccccc1)NC(=O)[C@H](Cc1ccc(O)cc1)NC(=O)[C@@H](N)Cc1ccc(O)cc1)[C@@H](C)O)C(N)=O` [D7, L-Tyr^1-Tyr^2-Phe-D-Trp-Lys-Thr-Tyr^7-Thr-NH2] (H-YYF[dW]KTYT-NH2) came in with an IC50 at 24 h in data set [1] of 737 ± 20 µM. The IC50 in data set [2] (setting [5]) is 433 ± 23.2 µM; in data set [3] (setting [6]) it was 403 ± 24.9 µM; in data set [4] (setting [7]), 782 ± 19 µM. In addition, the “Selectivity index SI, MCF-7” value in data set [3] (SI = IC50 MCF-10A/IC50 MCF-7) was 1.07. Besides, the “Selectivity index SI, MDA-MB-231” value in data set [4] (setting [8]) was determined as 0.55.

Consider `C[C@@H](O)[C@H](NC(=O)[C@H](Cc1ccc(O)cc1)NC(=O)[C@@H](NC(=O)[C@H](CCCCN)NC(=O)[C@@H](Cc1c[nH]c2ccccc12)NC(=O)[C@H](Cc1ccc(O)cc1)NC(=O)[C@H](Cc1ccc(O)cc1)NC(=O)[C@@H](N)Cc1ccc(O)cc1)[C@@H](C)O)C(N)=O` [D9, L-Tyr^1-Tyr^2-Tyr^3-D-Trp-Lys-Thr-Tyr^7-Thr-NH2] (H-YYY[dW]KTYT-NH2), for which the IC50 at 24 h in data set [1] is > 1000 µM and 1430 µM. In addition, the concentration for half-maximal inhibition (IC50) in data set [2] (setting [5]) worked out at 395 ± 15.3 µM; in data set [3] (setting [6]), 477 ± 31.4 µM; in data set [4] (setting [7]), 1410 ± 19.1 µM. Further, the “Selectivity index SI, MCF-7” value in data set [3] (SI = IC50 MCF-10A/IC50 MCF-7) worked out at 0.83. Also, the “Selectivity index SI, MDA-MB-231” value in data set [4] (setting [8]) worked out at 0.28.

On to `C[C@@H](O)[C@H](NC(=O)[C@H](Cc1ccccc1)NC(=O)[C@@H](NC(=O)[C@H](CCCCN)NC(=O)[C@@H](Cc1c[nH]c2ccccc12)NC(=O)[C@H](Cc1ccccc1)NC(=O)[C@H](Cc1ccccc1)NC(=O)[C@H](N)Cc1ccc(O)cc1)[C@@H](C)O)C(N)=O` [D11, D-Tyr^1-Phe-Phe-D-Trp-Lys-Thr-Phe-Thr-NH2] (H-[dY]FF[dW]KTFT-NH2), for which the IC50 at 24 h in data set [1] is > 1000 µM and 1630 µM. Moreover, the IC50 in data set [2] (setting [5]) was found to be 864 ± 52.3 µM; in data set [3] (setting [6]) it was 873 ± 26.6 µM; in data set [4] (setting [7]), 1720 ± 58.6 µM. In addition, the “Selectivity index SI, MCF-7” value in data set [3] (SI = IC50 MCF-10A/IC50 MCF-7) came out at 0.99. Besides, the “Selectivity index SI, MDA-MB-231” value in data set [4] (setting [8]) is on record as 0.50.

With `C[C@@H](O)[C@H](NC(=O)[C@H](Cc1ccc(O)cc1)NC(=O)[C@@H](NC(=O)[C@H](CCCCN)NC(=O)[C@@H](Cc1c[nH]c2ccccc12)NC(=O)[C@H](Cc1ccc(O)cc1)NC(=O)[C@H](Cc1ccc(O)cc1)NC(=O)[C@H](N)Cc1ccccc1)[C@@H](C)O)C(N)=O` [D61, D-Phe-Tyr^2-Tyr^3-D-Trp-Lys-Thr-Tyr^7-Thr-NH2] (H-[dF]YY[dW]KTYT-NH2), the values for the IC50 at 24 h in data set [1] and in data set [1] (setting [9]) were 1200 ± 100 µM and more than 1000 µM, respectively. In addition, the IC50 in data set [2] stood at 555 ± 21.3 µM; in data set [3], 426 ± 23.9 µM; in data set [4], 798 ± 24.4 µM. Moreover, the “Selectivity index SI, MCF-7” value in data set [3] (2 h) was 1.3. Further, the “Selectivity index SI, MDA-MB-231” value in data set [4] (2 h) stood at 0.69.

Turning to `C[C@@H](O)[C@H](NC(=O)[C@H](Cc1ccc(O)cc1)NC(=O)[C@@H](NC(=O)[C@H](CCCCN)NC(=O)[C@@H](Cc1c[nH]c2ccccc12)NC(=O)[C@H](Cc1ccc(O)cc1)NC(=O)[C@H](Cc1ccc(O)cc1)NC(=O)[C@H](N)Cc1ccc(O)cc1)[C@@H](C)O)C(N)=O` [D91, D-Tyr^1-Tyr^2-Tyr^3-D-Trp-Lys-Thr-Tyr^7-Thr-NH2] (H-[dY]YY[dW]KTYT-NH2), the 50% inhibitory concentration (IC50) at 24 h in data set [1] was 975 ± 81.7 µM. The IC50 amounted to 540 ± 27.2 µM in data set [2], 527 ± 54.2 µM in data set [3] and 849 ± 21.2 µM in data set [4]. In addition, the “Selectivity index SI, MCF-7” value in data set [3] (2 h) was determined as 1.02. In addition, the “Selectivity index SI, MDA-MB-231” value in data set [4] (2 h) turned out to be 0.64.

For the compound `C[C@@H](O)[C@H](NC(=O)[C@H](Cc1ccccc1)NC(=O)[C@@H](NC(=O)[C@H](CCCCN)NC(=O)[C@@H](Cc1c[nH]c2ccccc12)NC(=O)[C@H](Cc1ccc(O)cc1)NC(=O)[C@H](Cc1ccc(O)cc1)NC(=O)[C@H](N)Cc1ccccc1)[C@@H](C)O)C(N)=O` [D101, D-Phe-Tyr^2-Tyr^3-D-Trp-Lys-Thr-Phe-Thr-NH2] (H-[dF]YY[dW]KTFT-NH2), the figures for the IC50 at 24 h in data set [1] and in data set [1] (setting [9]) were 1400 ± 52.3 µM and more than 1000 µM, respectively. For the same compound, the IC50 is 604 ± 24.7 µM in data set [2], 717 ± 20.8 µM in data set [3] and 1400 ± 20 µM in data set [4]. Also, the “Selectivity index SI, MCF-7” value in data set [3] (2 h) is on record as 0.84. The “Selectivity index SI, MDA-MB-231” value in data set [4] (2 h) was determined as 0.43.

For `C[C@@H](O)[C@H](NC(=O)[C@H](Cc1ccc(O)cc1)NC(=O)[C@@H](NC(=O)[C@H](CCCCN)NC(=O)[C@@H](Cc1c[nH]c2ccccc12)NC(=O)[C@H](Cc1ccccc1)NC(=O)[C@H](Cc1ccccc1)NC(=O)[C@H](N)Cc1ccccc1)[C@@H](C)O)C(N)=O` [DD8, D-Phe-Phe-Phe-D-Trp-Lys-Thr-Tyr^7-Thr-NH2] (H-[dF]FF[dW]KTYT-NH2), half-maximal inhibition in data set [1] (IC50 at 24 h) required 483 ± 33.9 µM. Besides, the IC50 amounted to 161 ± 7.97 µM in data set [2], 235 ± 14.3 µM in data set [3] and 241 ± 13.4 µM in data set [4]. Further, the “Selectivity index SI, MCF-7” value in data set [3] (2 h) is on record as 0.69. Moreover, the “Selectivity index SI, MDA-MB-231” value in data set [4] (2 h) was 0.67.
